Experimental data reported in ChEMBL document CHEMBL4428092, “Synthesis and activity evaluation of the cyclic dipeptides arylidene N-alkoxydiketopiperazines” (Bioorg Med Chem, 2016).
pIC50: −log10 of the molar value.

Legend:
[1] = Cytotoxicity against human K562-1 cells at 10 uM after 24 hrs by sulforhodamine B assay relative to control; type: functional
[2] = Cytotoxicity against human K562-1 cells at 50 uM after 24 hrs by sulforhodamine B assay relative to control; type: functional
[3] = Cytotoxicity against human K562-1 cells at 100 uM after 24 hrs by sulforhodamine B assay relative to control; type: functional
[4] = system: HCT-15; experiment: Cytotoxicity against human HCT15 cells at 20 uM after 24 hrs by sulforhodamine B assay relative to control; type: functional
[5] = Cytotoxicity against human K562-1 cells at 5 uM after 24 hrs by sulforhodamine B assay relative to control; type: functional
[6] = system: A549; experiment: Cytotoxicity against human A549 cells at 20 uM after 24 hrs by sulforhodamine B assay relative to control; type: functional
[7] = system: HCT-15; experiment: Growth inhibition of human HCT15 cells at 20 ug/ml relative to control; type: functional; conditions: read-out: GI
[8] = system: A549; experiment: Growth inhibition of human A549 cells at 20 ug/ml relative to control; type: functional; conditions: read-out: GI
[9] = system: HCT-15; experiment: Antiproliferative activity against human HCT15 cells after 24 hrs by sulforhodamine B assay relative to control; type: functional, cell-based; conditions: HCT-15, 24 h
[10] = Antiproliferative activity against human K562-1 cells after 24 hrs by sulforhodamine B assay relative to control; type: functional, cell-based
[11] = system: HepG2; experiment: Growth inhibition of human HepG2 cells at 20 ug/ml relative to control; type: functional; conditions: read-out: GI
[12] = system: HCT-15; experiment: Cytotoxicity against human HCT15 cells at 10 uM after 24 hrs by sulforhodamine B assay relative to control; type: functional
[13] = system: HT-29; experiment: Cytotoxicity against human HT-29 cells at 20 uM after 24 hrs by sulforhodamine B assay relative to control; type: functional
[14] = system: HT-29; experiment: Cytotoxicity against human HT-29 cells at 10 uM after 24 hrs by sulforhodamine B assay relative to control; type: functional
[15] = Cytotoxicity against human K562-1 cells at 20 uM after 24 hrs by sulforhodamine B assay relative to control; type: functional
[16] = system: HCT-8; experiment: Growth inhibition of human HCT8 cells at 20 ug/ml relative to control; type: functional; conditions: read-out: GI
[17] = system: A549; experiment: Cytotoxicity against human A549 cells at 50 uM after 24 hrs by sulforhodamine B assay relative to control; type: functional
[18] = system: HT-29; experiment: Cytotoxicity against human HT-29 cells at 50 uM after 24 hrs by sulforhodamine B assay relative to control; type: functional
[19] = system: HCT-15; experiment: Cytotoxicity against human HCT15 cells at 5 uM after 24 hrs by sulforhodamine B assay relative to control; type: functional
[20] = system: HCT-15; experiment: Cytotoxicity against human HCT15 cells at 100 uM after 24 hrs by sulforhodamine B assay relative to control; type: functional
[21] = Growth inhibition of human K562-1 cells at 20 ug/ml after 24 hrs by sulforhodamine B assay relative to control; type: functional; conditions: read-out: GI
[22] = system: MDA-MB-231; experiment: Growth inhibition of human MDA-MB-231 cells at 20 ug/ml relative to control; type: functional; conditions: read-out: GI
[23] = system: HT-29; experiment: Cytotoxicity against human HT-29 cells at 100 uM after 24 hrs by sulforhodamine B assay relative to control; type: functional
[24] = system: HCT-15; experiment: Cytotoxicity against human HCT15 cells at 50 uM after 24 hrs by sulforhodamine B assay relative to control; type: functional
[25] = system: HT-29; experiment: Growth inhibition of human HT-29 cells at 20 ug/ml relative to control; type: functional; conditions: read-out: GI
[26] = Growth inhibition of human K562-1 cells at 20 ug/ml relative to control; type: functional; conditions: read-out: GI
[27] = system: A549; experiment: Cytotoxicity against human A549 cells at 100 uM after 24 hrs by sulforhodamine B assay relative to control; type: functional
[28] = Growth inhibition of human Bre04 cells at 20 ug/ml after 24 hrs by sulforhodamine B assay relative to control; type: functional; conditions: Bre04, 24 h, read-out: GI
[29] = system: HCT-15; experiment: Growth inhibition of human HCT15 cells at 20 ug/ml after 24 hrs by sulforhodamine B assay relative to control; type: functional; conditions: HCT-15, 24 h, read-out: GI
[30] = system: HT-29; experiment: Growth inhibition of human HT-29 cells at 20 ug/ml after 24 hrs by sulforhodamine B assay relative to control; type: functional; conditions: HT-29, 24 h, read-out: GI
[31] = system: A549; experiment: Growth inhibition of human A549 cells at 20 ug/ml after 24 hrs by sulforhodamine B assay relative to control; type: functional; conditions: A549, 24 h, read-out: GI
[32] = system: A549; experiment: Cytotoxicity against human A549 cells at 5 uM after 24 hrs by sulforhodamine B assay relative to control; type: functional
[33] = system: A549; experiment: Cytotoxicity against human A549 cells at 10 uM after 24 hrs by sulforhodamine B assay relative to control; type: functional
[34] = system: A549; experiment: Antiproliferative activity against human A549 cells after 24 hrs by sulforhodamine B assay relative to control; type: functional, cell-based; conditions: A549, 24 h

Row | pIC50 [9] | Compound | Activity [1] | Activity [2] | Activity [3] | Activity [4] | Activity [5] | inhibition of growth at 20 µg/mL [7] | inhibition of growth at 20 µg/mL [8] | pIC50 [10] | inhibition of growth at 20 µg/mL [11] | Activity [12] | Activity [13] | Activity [14] | Activity [15] | inhibition of growth at 20 µg/mL [16] | Activity [17] | inhibition of growth at 20 µg/mL [22] | inhibition of growth at 20 µg/mL [25] | inhibition of growth at 20 µg/mL [26] | inhibition of growth at 20 µg/mL [28] | further results
1 | 4.63 | COc1cc(/C=C2\C(=O)N3CCC[C@H]3C(=O)N2OC2CCCCC2)cc(OC)c1OC | 50.7% | 83.6% | 96.4% | 47.6% | 30.2% | 67.9% | 26.4% | 5.01 | 76.1% | 39.2% | 42.9% | 48.8% | 61.3% | 75.2% | 33.4% | 42.5% | 60.5% |  |  | Activity [6]: 20.5%; Activity [18]: 56.6%; Activity [19]: 40.4%; Activity [20]: 89.7%; inhibition of growth at 20 µg/mL [21]: 80.1%; Activity [23]: 88.5%; Activity [24]: 69.3%
2 | 4.93 | CCCCON1C(=O)[C@@H]2CCCN2C(=O)/C1=C\c1ccccc1 | 39.2% | 92.7% | 99.6% | 78.3% | 30.2% | 90.6% | 50.8% | 4.56 | 59.9% | 48.8% | 39.8% | 21.2% | 46.5% | 68.4% | 48.4% | 16.3% | 64.9% | 96.2% |  | Activity [6]: 16.2%; Activity [18]: 61.6%; Activity [19]: 4.04%; Activity [20]: 99.1%; Activity [27]: 91.1%; Activity [23]: 80.6%; Activity [24]: 87.5%
3 |  | COc1cc(/C=C2\C(=O)N3CCC[C@H]3C(=O)N2OCc2ccccc2)cc(OC)c1OC |  |  |  |  |  | 74.2% | 8.9% |  | 75% |  |  |  |  | 79.1% |  | 43.2% | 70.1% | 73.2% |  | 
4 | 4.85 | CON1C(=O)[C@@H]2CCCN2C(=O)/C1=C\c1ccccc1 | 36.2% | 87.3% | 98.6% | 60.5% | 24.4% | 88.8% | 26.6% | 4.75 | 62.2% | 46.8% | 34.9% | 28.1% | 55.4% | 78.8% | 22.4% | 23.5% | 65.4% | 90.4% | 24.5% | Activity [18]: 56.4%; Activity [19]: 37.3%; Activity [20]: 96.5%; Activity [27]: 50.5%; Activity [23]: 88.6%; Activity [24]: 82.6%
5 |  | COc1cc(/C=C2\C(=O)N3CCC[C@H]3C(=O)N2OCc2cccnc2)cc(OC)c1OC |  |  |  |  |  |  |  |  |  |  |  |  |  |  |  |  |  |  |  | inhibition of growth at 20 µg/mL [29]: 78.7%; inhibition of growth at 20 µg/mL [30]: 30.7%; inhibition of growth at 20 µg/mL [31]: 27.1%
6 |  | O=C1[C@@H]2CCCN2C(=O)/C(=C\c2ccccc2)N1OCc1ccccc1 |  |  |  |  |  | 69.7% | 41.3% |  | 69.2% |  |  |  |  | 66.8% |  | 32.6% | 76.2% | 65.6% | 25% | 
7 |  | O=C1[C@@H]2CCCN2C(=O)/C(=C\c2cccnc2)N1OC1CCCCC1 |  |  |  |  |  | 62.1% | 35.2% |  | 60.4% |  |  |  |  | 80.1% |  | 16.1% | 70.3% | 69.3% | 35.3% | 
8 |  | O=C1[C@@H]2CCCN2C(=O)/C(=C\c2ccccc2)N1OC1CCCCC1 |  |  |  |  |  | 72.3% | 33.8% |  | 68.5% |  |  |  |  | 76.3% |  | 17.3% | 69.4% | 78.2% |  | 
9 | 5.07 | COc1cc(/C=C2\C(=O)N3CCC[C@H]3C(=O)N2OCc2ccc(Cl)cc2)cc(OC)c1OC | 58.1% | 96.5% | 97.8% | 81.6% | 36.7% |  |  | 5.14 |  | 60.5% | 39.2% | 24.2% | 73.9% |  | 81.8% |  |  |  | 50.3% | Activity [6]: 63.4%; Activity [32]: 4.03%; Activity [18]: 55.7%; Activity [19]: 42.4%; Activity [33]: 48.1%; inhibition of growth at 20 µg/mL [29]: 92.6%; Activity [20]: 98.6%; pIC50 [34]: 4.94; Activity [27]: 91.7%; inhibition of growth at 20 µg/mL [21]: 95.7%; Activity [23]: 86.8%; inhibition of growth at 20 µg/mL [30]: 53.2%; Activity [24]: 94.4%; inhibition of growth at 20 µg/mL [31]: 76.6%
10 |  | CCCCON1C(=O)[C@@H]2CCCN2C(=O)/C1=C\c1cc(OC)c(OC)c(OC)c1 |  |  |  |  |  | 61.6% | 43.4% |  | 64.3% |  |  |  |  | 60.6% |  | 45.6% | 61.6% | 64.4% |  | 
11 |  | CCON1C(=O)[C@@H]2CCCN2C(=O)/C1=C\c1ccccc1 |  |  |  |  |  |  |  |  |  |  |  |  |  |  |  |  |  |  | 21.9% | inhibition of growth at 20 µg/mL [21]: 42.6%; inhibition of growth at 20 µg/mL [30]: 62.8%; inhibition of growth at 20 µg/mL [31]: 25.3%
